Reference: US20230398586A1, “METHOD FOR DECOMPOSING PLANT MATTER” (DANSTAR FERMENT AG, priority 2020, published 2023)

Tests used:
Type in all cases: in vivo
[1] = test system: apple tree leaves on the orchard floor; test: Visual in-field leaf degradation rating per grid, first trial
Text: The objective of this trial was to establish the potential of soluble yeast cell wall derivatives to accelerate degradation of apple tree leaves on the orchard floor thereby reducing overwintering potential of apple scab (Venturia inaequalis).
(§1) At 95% leaf drop, two populations of autumn leaves were collected: 1) yellow leaves (yellow leaves ready to fall; harvested from the treatment trees and placed into wire grids; and 2) brown leaves (brown leaves which have fallen but not yet showing visible degradation collected from the orchard floor and placed into wire grids).
(§2) The following treatments were tested: 1) untreated control (no application); 2) water control (1000 L water per hectare); 3) urea ([…] per 1000 L per hectare); and 4) soluble yeast cell wall derivatives (Lallemand) (5 kg dry matter/ha; 10 L/ha in 1000 L water per hectare).
(§3) Treatments were applied to the soil using a non-mechanised back pack sprayer as applicator, in a one meter radius around the tree stem (grids were placed within this circumference).
(§4) Treatment application times: 1) 95% leaf drop; 2) 95% leaf drop+two weeks; and 3) 95% leaf drop+four weeks.
All evaluations were done separately on each of the two leaf populations selected at the start of the trial.
Leaf degradation according to a 0-9 scale, on a per grid estimate, reflecting the surface area which has decomposed; with “0” representing no degradation, “3” being approx. 30% degradation, “6” representing 60% degradation, and “9” complete degradation. […]

[2] = test system: apple tree leaves on the orchard floor; test: Leaf area degradation by leaf area scanner, first trial; details: for Average leaf area reduction: leaf area scanning method
Experimental: as §1, §2, §3, §4
Leaf degradation was expressed as the reduction in leaf area (mm^2) based on readings taken with a leaf area scanner (LI-COR, LI-3050C Transparent Belt Conveyor). Samples were placed onto a transparent conveyor belt which allowed the leaf to pass through the scanning head. The accumulated leaf area was determined by passing all leaves of a grid through the scanner and subsequently an average per leaf area (mm 2).

[3] = test system: Venturia inaequalis ascospores; test: Ascospore projection from overwintered leaves (Kollar waterbath protocol); details: M2: one application at 50 kg/ha (30% fallen leaves); untreated control 139
Experimental: The objective of this trial was to evaluate the efficacy of the soluble yeast cell wall derivatives on their ability to reduce the apple scab inoculum (i.e. ascospores) on overwintering leaves.
The trial was carried out on a “Gala” apple variety in an orchard severely affected by apple scab.
The following treatments were tested: M1: untreated control; M2: urea, one application at […]: soluble yeast cell wall derivatives (Lallemand), one application at 5 l/ha (30% fallen leaves); M4: soluble yeast cell wall derivatives, one application at 10 l/ha (30% fallen leaves); M5: soluble yeast cell wall derivatives, two applications at 10 l/ha (first application at beginning of leaf drop and second application at 30% fallen leaves). Each treatment had three replicates.
One batch of 100 g of leaves per replication was placed in plastic mesh bags with fine mesh on the outdoor ground, in orchard conditions. Treatments were applied in November to the trees using a backpack sprayer (SOLO) at a volume of 1000 L/ha. […]
The ascospore projection of Venturia inaequalis was evaluated in March. […]
All meteorological records came from the SudAgroMétéo station on the SudExpé Marsillargues site. […] The results were analyzed using a one-way ANOVA and multiple comparisons of the mean were analysed using a Tukey post-hoc test at 5% threshold. […]

[4] = brown leaves, 4 weeks after the last application
[5] = brown leaves, 8 weeks after the last application
[6] = brown leaves, 10 weeks after the last application
[7] = yellow leaves, 6 weeks after the last application
[8] = yellow leaves, 8 weeks after the last application
[9] = yellow leaves, 10 weeks after the last application

## NC(N)=O [urea]
[1]; [4]
  Average leaf degradation score in the sampling grids, degradation category (scale 0-9): 1.0
  percentage by which leaf degradation of a treatment exceeded the water control: (+43%)
[1]; brown leaves, 6 weeks after the last application
  Average leaf degradation score in the sampling grids, degradation category (scale 0-9): 2.2 ab
[1]; [5]
  Average leaf degradation score in the sampling grids, degradation category (scale 0-9): 3.2 ab
  percentage by which leaf degradation of a treatment exceeded the water control: (+60%)
[1]; [6]
  Average leaf degradation score in the sampling grids, degradation category (scale 0-9): 4.3 ab
  percentage by which leaf degradation of a treatment exceeded the water control: (+34%)
[1]; brown leaves, 12 weeks after the last application
  Average leaf degradation score in the sampling grids, degradation category (scale 0-9): 5.7 ab
[1]; first trial, 12 weeks after the last application, cold weather, lack of rains
  leaf degradation reached: ≤ 50%
[1]; yellow leaves, 4 weeks after the last application
  Average leaf degradation score in the sampling grids, degradation category (scale 0-9): 1.3a
[1]; [7]
  Average leaf degradation score in the sampling grids, degradation category (scale 0-9): 2.5a
  percentage by which leaf degradation of a treatment exceeded the water control: (+39%)
[1]; [8]
  Average leaf degradation score in the sampling grids, degradation category (scale 0-9): 3.2a
  percentage by which leaf degradation of a treatment exceeded the water control: (+14%)
[1]; [9]
  Average leaf degradation score in the sampling grids, degradation category (scale 0-9): 3.8 a
  percentage by which leaf degradation of a treatment exceeded the water control: (+9%)
[1]; yellow leaves, 12 weeks after the last application
  Average leaf degradation score in the sampling grids, degradation category (scale 0-9): 5.3ab
[2]; brown leaves
  Leaf area reduction relative to the water control: (+52%)
  Average leaf area reduction: 14.1 bc mm^2
[2]; yellow leaves
  Leaf area reduction relative to the water control: (+10%)
  Average leaf area reduction: 15.0 abc mm^2
[3]
  Average concentration of apple scab ascospores discharged in the overwintered leaves: 39 ascospores/μl
